# Literature values, collected in patent US20180014537A1, “NOVEL COMPOSITIONS AND METHODS FOR CONTROLLING SOIL BORNE PATHOGENS OF AGRICULTURAL CROPS” (ADJUVANTS UNLIMITED LLC, priority 2015, published 2018).
# How the values were obtained:
# Meloidogyne incognita = details: 3.2 uL per liter as a soil drench
# [1] = soil drench
# [2] = in vivo
# tomato seedlings = details: at 24 hours, equivalent concentrations
SMILES,control of Meloidogyne incognita (Meloidogyne incognita),concentration above which significant phytotoxicity occurred [1],less phytotoxic than the parent pelargonic acid [2] [fold],mortality of seedling (tomato seedlings) [%]
"CCCCCCCCC(=O)OC [PAME, pelargonic acid methyl ester]",good control,exceeded 4.8 uL per liter,40,100
CCCCCC[C@@H](O)C/C=C\CCCCCCCC(=O)OC [ricinoleic acid methyl ester],–,–,–,0
